Experimental data published in paper PMC12067444, “Synthesis and Pharmacological Characterization of Novel Peripheral Cannabinoid-1 Receptor Blockers Based on a Tricyclic Scaffold” (Journal of Medicinal Chemistry, 2025).
“Also recorded” adds a separate entry of the source.

How the values were obtained:
CB1R = target: T1, CB1R (Mus musculus, UniProt P47746); assay: [35S]GTPγS binding - CB1R activity, mouse brain membranes; format: biochemical; details: CP-55,940 as reference agonist
T1 construct: crude membranes from mouse brain; from tissue; host or cells: mouse brain cortex (without cerebellum) membranes, C57Bl/6Jhsd mice
Procedure: Mouse brains were dissected, and P2 membranes were prepared and resuspended at ∼10 μg protein/μL in 350 μL assay buffer containing 0.14% BSA. Ligand-stimulated [^35S]GTPγS binding was assayed as described in the SI. […]
utilizing [3H] C P -55,940 as the radioligand and crude membranes from humans for CB1 R or CB2 R. T he compounds were tested at various concentrations (eight points with a five-fold serial dilution starting at two m M) , and their ability to displace [3H] CP - 55, 940 was evaluated. Upon completion of the binding assays, the reaction mixture was filtered through GF/C plates, followed by four washes with cold wash buffer. After drying for one hour, 50 μL of Perkin Elmer Microscint 20 cocktail was added to the filter plate wells, and the bound [3H] C P -55,940 radioligand was measured using a β counter. All data points were duplicated, and Ki values were determined from two independent experiments using GraphPad Prism 7.02 analysis software, extracted through nonlinear regression analysis.
Tissue preparation for [ 35 S]GTPγS binding. […]
mM EGTA, 9 mM MgCl 2, and 150 mM NaCl, followed by homogenization. The protein concentration of the suspension was determined using the BCA assay, and the suspen sion was diluted to a final concentration of 2 mg/mL in assay buffer. […]
Supplementary Figure 1. […] The tested compounds were evaluated for their ability to inhibit CB1R-mediate d […]

CYP1A2 = target: T2, CYP1A2 (Homo sapiens, UniProt P05177); assay: CYP inhibition in human liver microsomes; format: in vitro ADME; details: probe phenacetin, phenacetin substrate
T2 construct: from tissue; host or cells: human liver microsomes
T2 sequence (P05177 1-516): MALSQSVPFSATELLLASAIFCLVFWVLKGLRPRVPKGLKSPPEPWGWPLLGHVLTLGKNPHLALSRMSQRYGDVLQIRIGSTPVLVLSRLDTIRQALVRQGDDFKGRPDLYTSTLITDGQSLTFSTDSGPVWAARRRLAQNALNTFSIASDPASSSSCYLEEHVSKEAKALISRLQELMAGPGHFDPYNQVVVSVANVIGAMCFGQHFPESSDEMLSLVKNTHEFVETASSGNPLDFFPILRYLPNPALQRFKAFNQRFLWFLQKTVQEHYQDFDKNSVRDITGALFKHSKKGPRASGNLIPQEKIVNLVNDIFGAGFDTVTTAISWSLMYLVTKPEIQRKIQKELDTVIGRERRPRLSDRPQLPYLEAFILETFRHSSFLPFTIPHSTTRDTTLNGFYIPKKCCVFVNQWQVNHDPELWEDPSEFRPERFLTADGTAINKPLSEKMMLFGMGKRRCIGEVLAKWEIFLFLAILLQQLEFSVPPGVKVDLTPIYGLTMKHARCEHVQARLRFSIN
Procedure: (§1) Human liver microsomes were incubated with the test compounds at 0.2 mg/mL of microsomal protein. The incubation was conducted at 37 °C in the presence of a NADPH (β-Nicotinamide adenine dinucleotide phosphate reduced form) regenerating system at a concentration of approximately 10 mM. To assess CYP inhibition, positive control substrates were utilized, including Phenacetin (1A2 substrate), Diclofenac (2C9 substrate), S-mephenytoin (2C19 substrate), Dextromethorphan (2D6 substrate), and Midazolam (3A4 substrate). The mixture was centrifuged after a 10 min incubation period to precipitate the protein. Subsequently, the samples underwent LC-MS/MS analysis, and the IC50 values were calculated to ascertain the inhibitory potency of the test compounds on specific CYP enzymes.

CYP2D6 = target: T3, CYP2D6 (Homo sapiens, UniProt P10635); assay: CYP inhibition in human liver microsomes; format: in vitro ADME; details: probe dextromethorphan, dextromethorphan substrate
T3 construct: from tissue; host or cells: human liver microsomes
Procedure: as §1

[1] = Tissue distribution after chronic oral administration in diet-induced obese mice; format: in vivo; details: C57Bl/6J, mouse, brain; 1 mg/kg PO for 24 days, DIO mice, 24 h after last dose; read-out: brain concentration after chronic treatment
Procedure: Tissue distribution after chronic administration was conducted similarly, except tissue collection was performed 24 h after the last drug administration and analyzed in the same manner as previously described.
Supplementary F igure 2. BNS808 biodistribution and pharm acokinet ics aft er chronic P O adm inist rat ion. The accumulation of BNS808 in organs/plasma was evaluated by analyzing the BNS808 levels in the plasma, brain, and liver post-chronic administration of 1 mg/kg PO for 24 days in diet-induced obese mice. Data r epr esent the mean ± SE M of 4 mice per gr oup.
(1 picture or pasted object on this page, not shown here)

T1 sequence (P47746 whole entry): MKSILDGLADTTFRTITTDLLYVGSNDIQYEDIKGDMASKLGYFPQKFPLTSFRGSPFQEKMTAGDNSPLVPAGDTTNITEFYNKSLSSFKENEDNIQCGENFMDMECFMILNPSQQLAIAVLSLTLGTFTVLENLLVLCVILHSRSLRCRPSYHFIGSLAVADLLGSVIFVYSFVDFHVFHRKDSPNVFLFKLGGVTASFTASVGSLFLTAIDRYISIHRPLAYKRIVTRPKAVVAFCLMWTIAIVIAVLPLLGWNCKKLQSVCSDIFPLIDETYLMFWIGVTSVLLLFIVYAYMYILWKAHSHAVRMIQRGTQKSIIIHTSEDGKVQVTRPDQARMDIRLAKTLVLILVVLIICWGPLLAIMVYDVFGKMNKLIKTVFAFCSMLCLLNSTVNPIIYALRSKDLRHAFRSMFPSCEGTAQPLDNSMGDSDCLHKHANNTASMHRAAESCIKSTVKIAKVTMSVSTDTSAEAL
T3 sequence (P10635 whole entry): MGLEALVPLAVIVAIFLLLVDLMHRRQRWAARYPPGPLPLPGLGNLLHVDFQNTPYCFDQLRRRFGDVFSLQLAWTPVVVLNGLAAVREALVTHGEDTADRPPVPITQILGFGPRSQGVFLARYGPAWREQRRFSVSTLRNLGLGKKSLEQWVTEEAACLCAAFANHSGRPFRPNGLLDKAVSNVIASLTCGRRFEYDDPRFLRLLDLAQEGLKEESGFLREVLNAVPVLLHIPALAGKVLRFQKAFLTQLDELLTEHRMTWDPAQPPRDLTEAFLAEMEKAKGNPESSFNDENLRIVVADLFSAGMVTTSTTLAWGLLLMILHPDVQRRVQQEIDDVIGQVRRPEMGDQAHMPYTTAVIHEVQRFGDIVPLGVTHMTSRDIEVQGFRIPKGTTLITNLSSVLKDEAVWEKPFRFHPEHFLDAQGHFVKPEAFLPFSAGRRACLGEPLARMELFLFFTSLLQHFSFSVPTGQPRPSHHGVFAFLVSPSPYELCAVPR

## Cc1ccc(S(=O)(=O)NC2CCCOc3c2nn(-c2ccccc2Cl)c3-c2ccc(Cl)cc2)cc1 (stereo not shown) [BNS807]
CB1R
  CB1R functional profile in GTPγS assay: inverse agonistic profile; also recorded: inverse agonist

## O=S(=O)(NC1CCCOc2c1nn(-c1ccccc1Cl)c2-c1ccc(Cl)cc1)c1ccc(Cl)cc1 (stereo not shown) [BNS808, 4-chloro-N-[2-(2-chlorophenyl)-3-(4-chlorophenyl)-5,6,7,8-tetrahydrooxepino[3,2-c]pyrazol-8-yl]benzenesulfonamide]
CYP1A2
  IC50 at 10 min: > 50 µM
CYP2D6
  IC50 at 10 min: > 50 µM
[1]
  concentration at 24 h: ~20 ng/g
